Test results reported in patent US9274101B2 (BIOLOG, Inc., priority 2001, dated 2016).
“Also recorded” adds a separate entry of the source.

Legend:
[1] = tested on: Undifferentiated HL-60 cells; assay: Energy use by undifferentiated HL-60 cells; format: cell-based, human; settings: for activity at 30 µM / activity at 100 µM / activity at 330 µM / activity at 1000 µM / activity at 3300 µM / activity at 10000 µM / activity at 15000 µM / activity at 20000 µM: Homo sapiens, HL-60, 24 h, read-out: Energy Use by Undifferentiated HL-60 Cells; for activity at 30 µM: Conc. 0.03 mM; for activity at 100 µM: Conc. 0.10 mM; for activity at 330 µM: Conc. 0.33 mM; for activity at 1000 µM: Conc. 1.00 mM; for activity at 3300 µM: Conc. 3.3 mM; for activity at 10000 µM: Conc. 10 mM; for activity at 15000 µM: Conc. 15 mM; for activity at 20000 µM: Conc. 20 mM
[2] = tested on: HepG2 cells; assay: HepG2 cells on flat bottom plastic wells, energy sources at a range of concentrations; format: cell-based, human; settings: for activity at 30 µM / activity at 100 µM / activity at 330 µM / activity at 1000 µM / activity at 3300 µM / activity at 10000 µM / activity at 15000 µM / activity at 20000 µM: Homo sapiens, HepG2, 72 h, read-out: HepG2 Cells Responses After 72 hours in Culture and a 4 hour Color Development Period; for activity at 30 µM: Conc. 0.03 mM; for activity at 100 µM: Conc. 0.10 mM; for activity at 330 µM: Conc. 0.33 mM; for activity at 1000 µM: Conc. 1.00 mM; for activity at 3300 µM: Conc. 3.3 mM; for activity at 10000 µM: Conc. 10 mM; for activity at 15000 µM: Conc. 15 mM; for activity at 20000 µM: Conc. 20 mM
Summary of the method: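 HepG2 cells plated overnight at 4×10^4 cells/cm^2 in glucose-, glutamine- and pyruvate-free DME with 10% HI FBS, then exposed to each energy source at 0.033 to 20 mM final for 48 to 72 h at 37° C, 5% CO2. MTS/PMS colour read at 490 nm (reference 650 nm) after 4-24 h; cell-free plate OD subtracted, data normalised to % negative control (water, no energy source).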

[3] = tested on: HL-60 cells; assay: Effect of 10 mM citric acid on HL-60 energy utilization; format: cell-based, human; settings: for cell activity in the presence of citric acid, in words: 10 mM citric acid; for Effect of 10 mM Citric Acid on HL-60 Energy Utilization: negative control without energy sources and without citric acid
[4] = tested on: ten strains of E. coli; format: cell-based, Escherichia coli; also: key: +: indicates that the organism tested was capable of utilizing the carbon source listed; −: indicates that the organism tested was not capable of utilizing the carbon source listed; indicates weak positive reactions
[5] = tested on: DMSO-differentiated HL-60 cells; assay: Energy use by DMSO-differentiated HL-60 cells; format: cell-based, human; settings: Homo sapiens, HL-60, 24 h, read-out: Energy Use by DMSO-Differentiated HL-60 Cells; for activity at 30 µM: Conc. 0.03 mM; for activity at 100 µM: Conc. 0.10 mM; for activity at 330 µM: Conc. 0.33 mM; for activity at 1000 µM: Conc. 1.00 mM; for activity at 3300 µM: Conc. 3.3 mM; for activity at 10000 µM: Conc. 10 mM; for activity at 15000 µM: Conc. 15 mM; for activity at 20000 µM: Conc. 20 mM
Summary of the method: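 HL-60 cells, […] differentiated with 1.25% DMSO for 3 days, were plated at 5×10^4/well in DME-R with test energy sources at 0.033–20 mM final for 24 h at 37 °C. Viability was measured by MTS/PMS at 490 nm (ref 650 nm) 24 h after reagent addition. Values were background-subtracted using cell-free plates and expressed as % of the no-energy-source control.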

[6] = energy source 0.03 mM with 10 mM citric acid
[7] = energy source 0.10 mM with 10 mM citric acid
[8] = energy source 0.33 mM with 10 mM citric acid
[9] = energy source 1.00 mM with 10 mM citric acid
[10] = energy source 3.3 mM with 10 mM citric acid
[11] = energy source 10 mM with 10 mM citric acid
[12] = energy source 15 mM with 10 mM citric acid
[13] = energy source 20 mM with 10 mM citric acid

SMILES | activity at 30 µM [1] [%] | activity at 100 µM [1] [%] | activity at 330 µM [1] [%] | activity at 1000 µM [1] [%] | activity at 3300 µM [1] [%] | activity at 10000 µM [1] [%] | activity at 15000 µM [1] [%] | activity at 20000 µM [1] [%] | activity at 30 µM [2] [%] | activity at 100 µM [2] [%] | activity at 330 µM [2] [%] | activity at 1000 µM [2] [%] | activity at 3300 µM [2] [%] | activity at 10000 µM [2] [%] | activity at 15000 µM [2] [%] | activity at 20000 µM [2] [%] | Effect of 10 mM Citric Acid on HL-60 Energy Utilization [3, 6] | Effect of 10 mM Citric Acid on HL-60 Energy Utilization [3, 7] | Effect of 10 mM Citric Acid on HL-60 Energy Utilization [3, 8] | Effect of 10 mM Citric Acid on HL-60 Energy Utilization [3, 9] | other results
O=C[C@H](O)[C@@H](O)[C@@H](O)[C@H](O)C(=O)O [D-galacturonic acid] | 116 | 116 | 116 | 141 | 144 | 134 | 162 | 113 | 124 | 140 | 171 | 177 | 165 | 179 | 228 | 162 | 1.4 % of negative control | 12.8 % of negative control | 43.5 % of negative control | 61.8 % of negative control | cell activity in the presence of citric acid, in words [3]: acitivity; also recorded: capable of overcoming the antiproliferative effects of citric acid; Effect of 10 mM Citric Acid on HL-60 Energy Utilization [3, 10]: 141.6 % of negative control; Effect of 10 mM Citric Acid on HL-60 Energy Utilization [3, 11]: 177.0 % of negative control; Effect of 10 mM Citric Acid on HL-60 Energy Utilization [3, 12]: 136.3 % of negative control; Effect of 10 mM Citric Acid on HL-60 Energy Utilization [3, 13]: 110.8 % of negative control; carbon source utilization [4]: +; activity at 30 µM [5]: 118%; activity at 100 µM [5]: 123%; activity at 330 µM [5]: 138%; activity at 1000 µM [5]: 157%; activity at 3300 µM [5]: 168%; activity at 10000 µM [5]: 173%; activity at 15000 µM [5]: 126%; activity at 20000 µM [5]: 101%
NC(=O)C[C@H](N)C(=O)O [L-asparagine] | 128 | 118 | 118 | 124 | 136 | 141 | 153 | 157 | 122 | 190 | 203 | 173 | 161 | 124 | 112 | 52.2 | 10.1 % of negative control | 15.3 % of negative control | 13.4 % of negative control | 24.6 % of negative control | Effect of 10 mM Citric Acid on HL-60 Energy Utilization [3, 10]: 48.6 % of negative control; Effect of 10 mM Citric Acid on HL-60 Energy Utilization [3, 11]: 100.1 % of negative control; Effect of 10 mM Citric Acid on HL-60 Energy Utilization [3, 12]: 97.7 % of negative control; Effect of 10 mM Citric Acid on HL-60 Energy Utilization [3, 13]: 98.3 % of negative control; carbon source utilization [4]: + and −; activity at 30 µM [5]: 106%; activity at 100 µM [5]: 112%; activity at 330 µM [5]: 122%; activity at 1000 µM [5]: 143%; activity at 3300 µM [5]: 153%; activity at 10000 µM [5]: 167%; activity at 15000 µM [5]: 152%; activity at 20000 µM [5]: 134%
NC(=O)CC[C@H](N)C(=O)O [L-glutamine] | 167 | 214 | 227 | 237 | 249 | 220 | 198 | 172 | 103 | 114 | 205 | 218 | 260 | 224 | 146 | 111 | 15.0 % of negative control | 57.8 % of negative control | 57.1 % of negative control | 108.0 % of negative control | energy source use in words ([1]; undifferentiated HL-60 cells): responsive to high concentrations; response in words ([2]; 0.033 to 20 mM, 72 hour culture): dose dependent response in the 72 hour culture up to 3.3 mM; cell activity in the presence of citric acid, in words [3]: able to restore cell activity to a level equal or greater than the negative control; Effect of 10 mM Citric Acid on HL-60 Energy Utilization [3, 10]: 135.0 % of negative control; Effect of 10 mM Citric Acid on HL-60 Energy Utilization [3, 11]: 125.3 % of negative control; Effect of 10 mM Citric Acid on HL-60 Energy Utilization [3, 12]: 107.3 % of negative control; Effect of 10 mM Citric Acid on HL-60 Energy Utilization [3, 13]: 86.7 % of negative control; carbon source utilization [4]: + and −; activity at 30 µM [5]: 110%; activity at 100 µM [5]: 149%; activity at 330 µM [5]: 154%; activity at 1000 µM [5]: 156%; activity at 3300 µM [5]: 172%; activity at 10000 µM [5]: 157%; activity at 15000 µM [5]: 121%; activity at 20000 µM [5]: 109%
COC(=O)CCC(=O)O [mono methyl succinate] | 104 | 99.9 | 112 | 141 | 182 | 223 | 261 | 199 | 144 | 161 | 179 | 180 | 200 | 224 | 357 | 238 | 4.9 % of negative control | 13.0 % of negative control | 16.9 % of negative control | 51.7 % of negative control | Effect of 10 mM Citric Acid on HL-60 Energy Utilization [3, 10]: 163.6 % of negative control; Effect of 10 mM Citric Acid on HL-60 Energy Utilization [3, 11]: 210.0 % of negative control; Effect of 10 mM Citric Acid on HL-60 Energy Utilization [3, 12]: 192.3 % of negative control; Effect of 10 mM Citric Acid on HL-60 Energy Utilization [3, 13]: 173.9 % of negative control; activity at 30 µM [5]: 104%; activity at 100 µM [5]: 93.4%; activity at 330 µM [5]: 124%; activity at 1000 µM [5]: 142%; activity at 3300 µM [5]: 184%; activity at 10000 µM [5]: 194%; activity at 15000 µM [5]: 156%; activity at 20000 µM [5]: 118%
